Experimental data taken from the supplement of paper PMC11061612.

How the values were obtained:
Experiment in all cases: combination Emax (second highest fraction inhibited in the dose matrix, 72 h); higher = more inhibition; extreme values may be limits of the assay
[1] = test system: HH (T-Cell Non-Hodgkin's Lymphoma)
Procedure, shortened: (§1)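 Bliss excess equals the observed combination effect minus the expected value EA + EB − EA·EB, where EA and EB are the effects of each agent alone. Combination Emax is the second-highest inhibition within the matrix. Inhibition was scaled from CellTiter-Glo 2.0 luminescence, with 0 set by vehicle wells and 1 by blank wells, after 72 hours of two-drug dosing of cells plated in 1536-well plates.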

[2] = test system: YAPC (Pancreatic Carcinoma)
Procedure, shortened: as §1

[3] = test system: LCLC-97TM1 (Non-Small Cell Lung Carcinoma)
Procedure, shortened: as §1

[4] = test system: TGBC1TKB (Biliary Tract Carcinoma)
Procedure, shortened: as §1

[5] = test system: SNU-449 (Hepatocellular Carcinoma)
Procedure, shortened: as §1

A673 (Ewing's Sarcoma) = test system: A673 (Ewing's Sarcoma)
Procedure, shortened: as §1

[6] = test system: NCI-H524 (Small Cell Lung Carcinoma)
Procedure, shortened: as §1

EW-11 (Ewing's Sarcoma) = test system: EW-11 (Ewing's Sarcoma)
Procedure, shortened: as §1

[7] = test system: SW1573 (Lung Adenocarcinoma)
Procedure, shortened: as §1

[8] = test system: WSU-NHL (B-Cell Non-Hodgkin's Lymphoma)
Procedure, shortened: as §1

[9] = test system: Hs-746T (Gastric Carcinoma)
Procedure, shortened: as §1

[10] = test system: NCI-H209 (Small Cell Lung Carcinoma)
Procedure, shortened: as §1

[11] = test system: NCI-H1568 (Lung Adenocarcinoma)
Procedure, shortened: as §1

[12] = test system: NUGC-4 (Gastric Carcinoma)
Procedure, shortened: as §1

BPH-1 (Non-Cancerous) = test system: BPH-1 (Non-Cancerous)
Procedure, shortened: as §1

[13] = test system: CAL-33 (Oral Cavity Carcinoma)
Procedure, shortened: as §1

[14] = test system: FTC-133 (Thyroid Gland Carcinoma)
Procedure, shortened: as §1

[15] = test system: HeLa (Cervical Carcinoma)
Procedure, shortened: as §1

[16] = test system: SAS (Oral Cavity Carcinoma)
Procedure, shortened: as §1

[17] = test system: ALL-PO (B-Lymphoblastic Leukemia)
Procedure, shortened: as §1

Row | SMILES | combination Emax [1] | combination Emax [2] | combination Emax [3] | combination Emax [4] | combination Emax [5] | combination Emax (A673 (Ewing's Sarcoma)) | combination Emax [6] | combination Emax (EW-11 (Ewing's Sarcoma)) | combination Emax [7] | combination Emax [8] | combination Emax [9] | combination Emax [10] | combination Emax [11] | combination Emax [12] | combination Emax (BPH-1 (Non-Cancerous)) | combination Emax [13] | combination Emax [14] | combination Emax [15] | combination Emax [16] | combination Emax [17]
1 | COc1cccc2c1C(=O)c1c(O)c3c(c(O)c1C2=O)C[C@@](O)(C(=O)CO)C[C@@H]3O[C@H]1C[C@H](N)[C@H](O)[C@H](C)O1 [Doxorubicin] + Cc1cc2ncnn2cc1Nc1ncc2c(n1)n(C1CCOCC1)c(=O)n2C [AZD7648] (first compound max 1 µM, 7x7, partner max 10 µM) | 0.297 | 0.381 | 0.6 | 0.366 | 0.173 | 0.888 | 0.693 | 0.893 | 0.533 | 1 | 0.737 | 0.993 | 0.197 | 0.393 | 0.951 | 0.873 | 0.92 | 0.499 | 0.921 | 1
2 | CS(=O)(=O)CCNCc1ccc(-c2ccc3ncnc(Nc4ccc(OCc5cccc(F)c5)c(Cl)c4)c3c2)o1 [Lapatinib] + C[C@@H](Oc1cc(-c2cnn(C3CCNCC3)c2)cnc1N)c1c(Cl)ccc(F)c1Cl [Crizotinib] (first compound max 10 µM, 7x7, partner max 10 µM) | 0.327 | 0.636 | 0.979 | 0.616 | 0.827 | 0.808 | 0.952 | 0.936 | 0.462 | 0.966 | 0.876 | 0.927 | 0.952 | 0.808 | 0.949 | 0.989 | 0.84 | 0.859 | 0.825 | 1
3 | CC(=O)c1c(C)c2cnc(Nc3ccc(N4CCNCC4)cn3)nc2n(C2CCCC2)c1=O [Palbociclib] + CC1(C)CCC(CN2CCN(c3ccc(C(=O)NS(=O)(=O)c4ccc(NCC5CCOCC5)c([N+](=O)[O-])c4)c(Oc4cnc5[nH]ccc5c4)c3)CC2)=C(c2ccc(Cl)cc2)C1 [Venetoclax] (first compound max 10 µM, 7x7, partner max 1 µM) | 0.343 | 0.165 | 0.176 | 0.033 | 0.272 | 0.136 | 0.685 | 0.203 | 0.204 | 0.92 | 0.24 | 0.921 | 0.423 | 0.194 | 0.153 | 0.113 | 0.0919 | 0.0741 | 0.47 | 0.931
4 | CC(=O)c1c(C)c2cnc(Nc3ccc(N4CCNCC4)cn3)nc2n(C2CCCC2)c1=O [Palbociclib] + Cc1c2c(nn1C)CSCc1cc(n(C)n1)CSc1cc(c3ccccc3c1)OCCCc1c(C(=O)O)n(C)c3c-2c(Cl)ccc13 [AZD5991] (first compound max 10 µM, 7x7, partner max 1 µM) | 0.911 | 0.288 | 0.263 | 0.164 | 0.335 | 0.453 | 0.808 | 0.605 | 0.2 | 0.928 | 0.299 | 0.908 | 0.418 | 0.252 | 0.281 | 0.291 | 0.18 | 0.39 | 0.538 | 1
5 | CC(=O)c1c(C)c2cnc(Nc3ccc(N4CCNCC4)cn3)nc2n(C2CCCC2)c1=O [Palbociclib] + Cn1cnc2c(F)c(Nc3ccc(Br)cc3Cl)c(C(=O)NOCCO)cc21 [Selumetinib] (first compound max 10 µM, 7x7, partner max 10 µM) | 0.407 | 0.379 | 0.64 | 0.167 | 0.338 | 0.177 | 0.739 | 0.168 | 0.164 | 0.886 | 0.49 | 0.594 | 0.206 | 0.392 | 0.518 | 0.382 | 0.202 | 0.104 | 0.711 | 0.697
6 | COc1cccc(OCCCN)c1-c1cc(Nc2cnc(C#N)cn2)n[nH]1 [Prexasertib] + C=CCn1c(=O)c2cnc(Nc3ccc(N4CCN(C)CC4)cc3)nc2n1-c1cccc(C(C)(C)O)n1 [AZD1775] (first compound max 1 µM, partner max 1 µM) | 0.742 | 0.669 | 0.951 | 0.446 | 0.439 | 0.946 | 1 | 0.683 | 0.582 | 1 | 0.78 | 0.988 | 0.563 | 0.555 | 0.809 | 0.916 | 0.858 | 0.91 | 0.969 | 0.989
7 | COc1cccc(OCCCN)c1-c1cc(Nc2cnc(C#N)cn2)n[nH]1 [Prexasertib] + CCc1c2c(nc3ccc(O)cc13)-c1cc3c(c(=O)n1C2)COC(=O)[C@]3(O)CC [SN-38] (first compound max 1 µM, 7x7, partner max 0.3 µM) | 0.829 | 0.653 | 1 | 0.632 | 0.531 | 0.998 | 1 | 0.749 | 0.925 | 1 | 0.813 | 1 | 0.848 | 0.484 | 0.972 | 0.957 | 1 | 0.865 | 0.999 | 0.993
8 | COc1cccc(OCCCN)c1-c1cc(Nc2cnc(C#N)cn2)n[nH]1 [Prexasertib] + CN(C)CCCOc1ccc(-c2ccc3ncc4c(c3c2)n(C2CCOCC2)c(=O)n4C)cn1 [AZD0156] (first compound max 1 µM, 7x7, partner max 1 µM) | 0.703 | 0.559 | 0.925 | 0.361 | 0.326 | 0.905 | 0.97 | 0.756 | 0.201 | 1 | 0.78 | 0.94 | 0.538 | 0.49 | 0.235 | 0.807 | 0.805 | 0.859 | 0.926 | 0.979
9 | COc1cccc(OCCCN)c1-c1cc(Nc2cnc(C#N)cn2)n[nH]1 [Prexasertib] + C[C@@H]1COCCN1C2=NC(=NC(=C2)C3(CC3)[S@](=N)(=O)C)C4=C5C=CNC5=NC=C4 [AZD6738] (first compound max 1 µM, 7x7, partner max 10 µM) | 0.674 | 0.555 | 0.941 | 0.552 | 0.282 | 0.883 | 0.998 | 0.734 | 0.236 | 1 | 0.754 | 0.959 | 0.526 | 0.543 | 0.356 | 0.916 | 0.861 | 0.864 | 0.943 | 0.982
10 | COc1cccc(OCCCN)c1-c1cc(Nc2cnc(C#N)cn2)n[nH]1 [Prexasertib] + Cc1cc2ncnn2cc1Nc1ncc2c(n1)n(C1CCOCC1)c(=O)n2C [AZD7648] (first compound max 1 µM, 7x7, partner max 10 µM) | 0.65 | 0.585 | 0.938 | 0.483 | 0.308 | 0.875 | 0.988 | 0.742 | 0.201 | 1 | 0.78 | 0.974 | 0.54 | 0.493 | 0.319 | 0.816 | 0.82 | 0.839 | 0.926 | 0.993
11 | COc1cccc(OCCCN)c1-c1cc(Nc2cnc(C#N)cn2)n[nH]1 [Prexasertib] + O=C(c1cc(Cc2n[nH]c(=O)c3ccccc23)ccc1F)N1CCN(C(=O)C2CC2)CC1 [Olaparib] (first compound max 1 µM, 7x7, partner max 10 µM) | 0.542 | 0.597 | 0.936 | 0.446 | 0.234 | 0.923 | 0.929 | 0.792 | 0.241 | 1 | 0.806 | 0.965 | 0.481 | 0.415 | 0.497 | 0.833 | 0.915 | 0.773 | 0.93 | 0.979
12 | CCc1c2c(nc3ccc(O)cc13)-c1cc3c(c(=O)n1C2)COC(=O)[C@]3(O)CC [SN-38] + CN(C)CCCOc1ccc(-c2ccc3ncc4c(c3c2)n(C2CCOCC2)c(=O)n4C)cn1 [AZD0156] (first compound max 0.3 µM, 7x7, partner max 1 µM) | 0.0821 | 0.51 | 0.693 | 0.366 | 0.196 | 0.996 | 0.608 | 0.739 | 0.794 | 1 | 0.531 | 1 | 0.474 | 0.287 | 0.94 | 0.936 | 0.959 | 0.295 | 1 | 0.985
13 | Cn1cnc2c(F)c(Nc3ccc(Br)cc3Cl)c(C(=O)NOCCO)cc21 [Selumetinib] + C=CCn1c(=O)c2cnc(Nc3ccc(N4CCN(C)CC4)cc3)nc2n1-c1cccc(C(C)(C)O)n1 [AZD1775] (first compound max 10 µM, partner max 1 µM) | 0.0977 | 0.396 | 0.87 | 0.233 | 0.129 | 0.203 | 0.617 | 0.42 | 0.361 | 0.854 | 0.636 | 0.858 | 0.489 | 0.526 | 0.535 | 0.836 | 0.778 | 0.437 | 0.678 | 0.978
